Data from US20250134882A1, “PROTEIN TYROSINE PHOSPHATASE INHIBITORS AND USES THEREOF” (Nerio Therapeutics, Inc., priority 2022, published 2025).

Key:
[1] = test system: murine B16F10 melanoma cell line; assay: B16F10 IFNγ-induced cellular growth inhibition assay (xCELLigence RTCA); type: cell-based; details: Mus musculus, B16-F10, 48 h; read-out: B16 IFNγ Mediated Growth Inhibition Assay: AVG IC50
Protocol: Example B: B16F10 Cellular Growth Inhibition Assay Compound activity was determined using an interferon gamma (IFNγ)-induced cellular growth inhibition assay with the murine B16F10 melanoma cell line on an Agilent xCELLigence Real-Time Cell Analysis platform (RTCA). RTCA E-Plate View 96 plates (Agilent, 300601010) were pre-equilibrated with 50 μL of assay media (DMEM+10% FBS, Gibco 10566-024, Gibco 10082-147) at 37° C. in a humidified incubator before taking an initial measurement of impedance (sweep). […] Cells were incubated at room temperature for 20 min to allow cells to settle before placing them in the xCELLigence reader and incubating overnight at 37° C., sweeping wells every 15 minutes. After 24 hours, well readings were paused, plates were removed from the incubator and compounds were added using a Tecan D300e dispenser. […] Assay plates were placed in the xCELLigence reader and swept every 15 minutes. After 48 hours, well readings were normalized to the time point immediately preceding compound addition and the area under the growth curve (AUC) was calculated by the RTCA software and exported.

[2] = molecular target: full-length human PTPN2 (TC45) (1-387) protein (Homo sapiens (Human), UniProt P17706); assay: Enzymatic assay with full-length PTPN2 and DiFMUP substrate; type: biochemical; details: 0.5 nM PTPN2, 100 μM DiFMUP, 30 min at room temperature
Chain of full-length human PTPN2 (TC45) (1-387) protein (P17706 other isoform, or with tags, fused parts or gaps): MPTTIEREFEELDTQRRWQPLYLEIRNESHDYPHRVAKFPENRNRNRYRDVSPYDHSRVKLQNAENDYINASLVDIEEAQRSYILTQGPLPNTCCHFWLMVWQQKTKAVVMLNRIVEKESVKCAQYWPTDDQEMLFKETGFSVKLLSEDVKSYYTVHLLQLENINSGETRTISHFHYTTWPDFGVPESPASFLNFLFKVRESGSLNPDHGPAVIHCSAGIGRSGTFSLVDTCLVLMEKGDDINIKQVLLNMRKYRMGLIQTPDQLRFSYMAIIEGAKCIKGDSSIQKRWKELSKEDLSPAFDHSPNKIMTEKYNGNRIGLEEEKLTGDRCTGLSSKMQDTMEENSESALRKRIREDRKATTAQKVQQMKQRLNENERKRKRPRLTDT
Description: Compounds were subsequently added using a Tecan D300e dispenser. […] A four-parameter curve fit was used to determine IC50 values from % inhibition data.

SMILES: CC(C)CCN[C@@H]1C[C@H]2C[C@@H]1c1c2cc(O)c(N2CC(=O)NS2(=O)=O)c1F [Example 3, 5-((1R,3R,4R)-5-fluoro-7-hydroxy-3-(isopentylamino)-1,2,3,4-tetrahydro-1,4-methanonaphthalen-6-yl)-1,2,5-thiadiazolidin-3-one 1,1-dioxide]
- IC50 [1]: 7.82 µM

SMILES: CC(C)CCNC1CCc2nc(O)c(N3CC(=O)NS3(=O)=O)c(F)c2C1 (centres unmarked) [Example 4, 5-(4-fluoro-2-hydroxy-6-(isopentylamino)-5,6,7,8-tetrahydroquinolin-3-yl)-1,2,5-thiadiazolidin-3-one 1,1-dioxide]
- IC50 [2]: 70.8 µM
